For one compound, Activity results are on record in ChEMBL document CHEMBL5505988, “Thiadiazole-, selenadiazole- and triazole-fused anthraquinones as G-quadruplex targeting anticancer compounds” (Eur J Med Chem, 2024).

The assay is described as follows: Downregulation of histone H3 protein expression in human K562 cells assessed as reduction in H3-positive cells at 16 uM after 24 hrs by flow cytometry analysis. Format: functional. Set-up: scale not given: the % may be the effect or the level left. For orientation: A flow cytometer gives signals particle by particle.

On to `Cl.Cl.NCCNc1c2c(c(NCCN)c3n[se]nc13)C(=O)c1ccccc1C2=O`, for which the Activity is reported as 48%.
